For series [1], the system named is LOX Human Melanoma. Description: Human tumor xenograft test, LOX. It counts as in vivo, athymic mice. Particulars: for tumor growth inhibition (activity call): LOX melanoma; for T/C on day 0 / T/C on day 7 / T/C on day 13: LOX, days 1, 5, 9, 13. The procedure: (§1) The ability of compounds of this invention to inhibit tumor growth in animals is studied in the athymic mouse xenograft standard pharmacological test. Female nu/nu mice in an outbred albino background are obtained from Charles River Laboratories (Wilmington, Mass.). Animals are injected subcutaneously on the flank with the desired tumor cell suspension. Several days later, mice with tumors of approximately 150 mm^3 are selected from those injected (staged) and randomly distributed into groups of 5-10. The day of staging is called day 0. Compounds of the invention, usually formulated in saline (exceptions are noted in tables), are administered to animals by intravenous injection or oral gavage on various schedules starting on day 0 or 1, as noted in the tables. The control group in each experiment is dosed with vehicle on the same schedule. Tumor size is measured every 3-7 days with calipers in two orthogonal dimensions, and tumor volume is calculated from the formula volume=[(length×width^2)/2].
(§2) Tumor/Control (T/C) is obtained by dividing the mean tumor volume of the treated group by the mean tumor volume of the control group on each measurement day. A treatment dose is defined as active if it produced a statistically significant T/C of 0.50 or less. A p value≦0.05, determined by one-side Student's t-test, is required for statistical significance. A treatment dose is defined as toxic if more than 10% of the animals died from a compound-related toxicity.

For series [2], the system named is DLD1 Human Colon Carcinoma. Put plainly: Human tumor xenograft test, DLD1. It counts as in vivo. Conditions: days 1, 5, 9, 13. The procedure: as §1, §2
In general terms: A xenograft is tissue or cells of one species grown in another, often human tumour cells in immunodeficient mice.

The subject of series [3] is LoVo Human Colon Carcinoma. Description: Human tumor xenograft test, LoVo. Particulars: for T/C on day 0 / T/C on day 7 / T/C on day 14 / T/C on day 21 / T/C on day 28 / T/C on day 35: days 1, 7, 14. It counts as in vivo, athymic mice. How it is done: as §1, §2

Marks after values point to notes of the source that are not given here.

Consider `C[C@H](Nc1c(-c2c(F)cc(OCCCN(C)C)cc2F)c(Cl)nc2ncnn12)C(F)(F)F.Cl` [Example 1a, 5-chloro-6-{4-[3-(dimethylamino)propoxy]-2,6-difluorophenyl}-N-[(1S)-2,2,2-trifluoro-1-methylethyl][1,2,4]triazolo[1,5-a]pyrimidin-7-amine hydrogen chloride Salt], for which the “tumor growth inhibition (activity call)” value is recorded as “not at 1 mg/kg” in series [1] (1 mg/kg intravenously on days 1, 5, 9, and 13); “active” in series [1] (6 and 3 mg/kg intravenously on days 1, 5, 9, and 13). For the same molecule, the “T/C on day 0” value in series [1] (1 mg/kg IV) was found to be 1.00; in series [1] (3 mg/kg IV), 1.00; in series [1] (6 mg/kg IV), 1.00; in series [2] (DLD1, 10 mg/kg IV), 1.00; in series [2] (DLD1, 15 mg/kg IV) it was 1.00; in series [2] (DLD1, 20 mg/kg IV) it was 1.00. Besides, the “T/C on day 7” value in series [1] (1 mg/kg IV) is on record as 0.80; in series [1] (3 mg/kg IV), 0.13**; in series [1] (6 mg/kg IV), 0.12**; in series [2] (DLD1, 10 mg/kg IV) it was 0.63; in series [2] (DLD1, 15 mg/kg IV) it was 0.21**; in series [2] (DLD1, 20 mg/kg IV) it was 0.31**. For the same molecule, the “T/C on day 13” value in series [1] (1 mg/kg IV) is 1.02; in series [1] (3 mg/kg IV), 0.17*; in series [1] (6 mg/kg IV), 0.07**. Besides, the “T/C on day 14” value is 0.51 in series [2] (DLD1, 10 mg/kg IV) and 0.25 in series [2] (DLD1, 15 mg/kg IV). The “T/C on day 21” value in series [2] (DLD1, 10 mg/kg IV) was determined as 0.58; in series [2] (DLD1, 15 mg/kg IV), 0.31. Further, the “toxicity of treatment dose” value in series [2] (DLD1 xenograft mice, 20 mg/kg IV, day 14) is given as “Toxic”.
`CNCCCOc1cc(F)c(-c2c(Cl)nc3ncnn3c2C2CCCCCC2)c(F)c1.O=C(O)C(F)(F)F` [Example 32, 3-[4-(5-Chloro-7-cycloheptyl[1,2,4]triazolo[1,5-a]pyrimidin-6-yl)-3,5-difluorophenoxy]-N-methylpropan-1-amine trifluoroacetic acid salt]: in series [3] (30 mg/kg PO), the “T/C on day 0” value stood at 1.00, the “T/C on day 7” value is 0.55, the “T/C on day 14” value was found to be 0.68 and the “T/C on day 21” value is recorded as 0.35. Besides, in series [3] (30 mg/kg PO), the “T/C on day 28” value is 0.43 and the “T/C on day 35” value is 0.53. In series [3] (50 mg/kg PO), the “T/C on day 0” value amounted to 1.00, the “T/C on day 7” value worked out at 0.41, the “T/C on day 14” value was 0.44* and the “T/C on day 21” value was 0.27*. For the same molecule, in series [3] (50 mg/kg PO), the “T/C on day 28” value was found to be 0.31 and the “T/C on day 35” value was 0.26. Besides, in series [3] (orally on days 1, 7 and 14 at 50 mg/kg), the “tumor growth inhibition (activity call)” value is “active”.
